Measured values taken from patent publication US20180119123A1, “CRISPR/CAS-RELATED METHODS AND COMPOSITIONS FOR TREATING HIV INFECTION AND AIDS” (EDITAS MEDICINE, INC., priority 2015, published 2018).
“Also recorded” adds a separate entry of the source.

System: CXCR4 locus
Assay: T7E1 assay for indels/NHEJ at the CXCR4 locus in Nucleofected CD34+ HSCs
Type: cell-based, human
Settings: 40 nM UM171; S. aureus or S. pyogenes Cas9 and CXCR4 gRNA plasmids; 96 hours
Protocol: For the T7E1 assay, PCR amplicons are approximately 500-700 bp with the intended cut site placed asymmetrically in the amplicon. Following amplification, purification and size-verification of PCR products, DNA is denatured and re-hybridized by heating to 95° C. and then slowly cooling. Hybridized PCR products are then digested with T7 Endonuclease I (or other mismatch-sensitive enzyme) which recognizes and cleaves non-perfectly matched DNA. […] Digestion products may be visualized by gel electrophoresis or by capillary electrophoresis. The fraction of DNA that is cleaved (density of cleavage products divided by the density of cleaved and uncleaved) may be used to estimate a percent NHEJ using the following equation: % NHEJ=(1-(1-fraction cleaved)^1/2). The T7E1 assay is sensitive down to about 2-5% NHEJ.
Human CD34^+ HSCs cells from mobilized peripheral blood (AllCells) were thawed into StemSpan Serum-Free Expansion Medium (SFEM, StemCell Technologies) containing 100 ng/mL each of the following cytokines: human stem cell factor (SCF), thrombopoietin (TPO), and flt-3 ligand (FL) (all from Peprotech). […]
In order to detect indels at the CXCR4 locus, T7E1 assays were performed on CXCR4 locus-specific PCR products that were amplified from genomic DNA samples from Nucleofected™ CD34^+ HSCs and then calculated the percentage of NHEJ detected at the CXCR4 locus (FIG. 11B).

Cn1nnc(-c2ccc3c(c2)[nH]c2nc(Cc4ccccc4)nc(N[C@H]4CC[C@H](N)CC4)c23)n1 [UM171, (1r,4r)-N1-(2-benzyl-7-(2-methyl-2H-tetrazol-5-yl)-9H-pyrimido[4,5-b]indol-4-yl)cyclohexane-1,4-diamine]
Percentage of genome editing at the CXCR4 locus with UM171 pre-treatment versus without: higher percentage of genome editing at the CXCR4 locus; also recorded: increased genome editing at the CXCR4 locus
